Data as given in article PMC4979471 (Cell Death Discovery, 2015).
Read-outs that look alike come from different tables or passages of the source.

Experiments:
Assay in all cases: Kinase selectivity, P33-radiolabeled assay
Type in all cases: biochemical
Details in all cases: 10 μM ATP
[1] = molecular target: T1, SGK2 (Homo sapiens, UniProt Q9HBY8)
T1 construct: purchased Reaction Biology Corp
T1 sequence (Q9HBY8 1-367): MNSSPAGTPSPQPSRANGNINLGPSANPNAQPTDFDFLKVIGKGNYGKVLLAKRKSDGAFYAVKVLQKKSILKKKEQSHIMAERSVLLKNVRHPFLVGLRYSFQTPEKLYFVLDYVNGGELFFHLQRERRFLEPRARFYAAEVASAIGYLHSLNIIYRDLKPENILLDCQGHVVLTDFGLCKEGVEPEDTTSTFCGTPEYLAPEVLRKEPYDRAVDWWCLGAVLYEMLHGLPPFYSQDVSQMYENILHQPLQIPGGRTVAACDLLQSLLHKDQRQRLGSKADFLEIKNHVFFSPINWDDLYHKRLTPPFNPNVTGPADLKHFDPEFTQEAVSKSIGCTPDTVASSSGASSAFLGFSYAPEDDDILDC
Method in brief: (§1)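 Duplicate single-concentration testing used 10 μM compound. The ATP concentration was also 10 μM.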

[2] = molecular target: T2, GSK3a (Homo sapiens, UniProt P49840)
T2 construct: purchased Reaction Biology Corp
Method in brief: as §1

[3] = molecular target: T3, EPHB3 (Homo sapiens, UniProt P54753)
T3 construct: purchased Reaction Biology Corp
T3 sequence (P54753 34-998): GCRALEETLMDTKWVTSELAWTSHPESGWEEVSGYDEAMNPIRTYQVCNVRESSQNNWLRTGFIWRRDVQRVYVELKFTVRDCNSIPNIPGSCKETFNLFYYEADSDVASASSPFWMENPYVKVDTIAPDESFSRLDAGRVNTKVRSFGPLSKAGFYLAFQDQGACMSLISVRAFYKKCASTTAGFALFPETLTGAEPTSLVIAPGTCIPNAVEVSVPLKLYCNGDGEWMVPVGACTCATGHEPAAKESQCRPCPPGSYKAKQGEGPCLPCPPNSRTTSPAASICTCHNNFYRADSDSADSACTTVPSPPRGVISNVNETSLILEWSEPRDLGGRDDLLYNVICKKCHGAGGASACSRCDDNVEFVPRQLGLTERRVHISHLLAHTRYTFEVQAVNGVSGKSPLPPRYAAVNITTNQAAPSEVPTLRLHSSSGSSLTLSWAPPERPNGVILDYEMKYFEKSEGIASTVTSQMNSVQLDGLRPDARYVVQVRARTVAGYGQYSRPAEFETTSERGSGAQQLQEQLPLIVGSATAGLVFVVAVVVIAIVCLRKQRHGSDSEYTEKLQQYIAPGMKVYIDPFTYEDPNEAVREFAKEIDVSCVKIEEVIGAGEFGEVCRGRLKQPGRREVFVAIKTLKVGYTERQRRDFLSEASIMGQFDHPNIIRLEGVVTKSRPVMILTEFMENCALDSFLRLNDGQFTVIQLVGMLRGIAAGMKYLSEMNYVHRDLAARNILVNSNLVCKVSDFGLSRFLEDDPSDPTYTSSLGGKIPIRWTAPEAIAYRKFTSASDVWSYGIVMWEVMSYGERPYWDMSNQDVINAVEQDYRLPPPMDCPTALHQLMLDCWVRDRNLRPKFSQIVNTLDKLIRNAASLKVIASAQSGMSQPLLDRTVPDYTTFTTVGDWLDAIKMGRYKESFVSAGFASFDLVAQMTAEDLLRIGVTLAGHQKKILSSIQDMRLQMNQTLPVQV
Method in brief: as §1

[4] = molecular target: T4, NEK2 (Homo sapiens, UniProt P51955)
T4 construct: purchased Reaction Biology Corp
T4 sequence (P51955 1-445): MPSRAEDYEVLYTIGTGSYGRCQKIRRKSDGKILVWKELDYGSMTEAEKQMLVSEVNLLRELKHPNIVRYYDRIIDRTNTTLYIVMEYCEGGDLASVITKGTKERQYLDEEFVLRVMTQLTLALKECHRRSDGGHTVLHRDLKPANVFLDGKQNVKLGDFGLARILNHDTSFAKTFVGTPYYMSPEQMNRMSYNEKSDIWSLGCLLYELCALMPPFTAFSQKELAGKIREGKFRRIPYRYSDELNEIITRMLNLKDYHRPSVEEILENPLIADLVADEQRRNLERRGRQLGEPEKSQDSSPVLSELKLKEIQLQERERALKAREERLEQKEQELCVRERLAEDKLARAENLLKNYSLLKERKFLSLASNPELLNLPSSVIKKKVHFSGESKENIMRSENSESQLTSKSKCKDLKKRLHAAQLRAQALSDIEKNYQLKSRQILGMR
Method in brief: as §1

[5] = molecular target: T5, CAMK1b (Homo sapiens, UniProt Q6P2M8)
T5 construct: purchased Reaction Biology Corp
Method in brief: as §1

[6] = molecular target: T6, BMX/ETK (Homo sapiens, UniProt P51813)
T6 construct: purchased Reaction Biology Corp
T6 sequence (P51813 1-675): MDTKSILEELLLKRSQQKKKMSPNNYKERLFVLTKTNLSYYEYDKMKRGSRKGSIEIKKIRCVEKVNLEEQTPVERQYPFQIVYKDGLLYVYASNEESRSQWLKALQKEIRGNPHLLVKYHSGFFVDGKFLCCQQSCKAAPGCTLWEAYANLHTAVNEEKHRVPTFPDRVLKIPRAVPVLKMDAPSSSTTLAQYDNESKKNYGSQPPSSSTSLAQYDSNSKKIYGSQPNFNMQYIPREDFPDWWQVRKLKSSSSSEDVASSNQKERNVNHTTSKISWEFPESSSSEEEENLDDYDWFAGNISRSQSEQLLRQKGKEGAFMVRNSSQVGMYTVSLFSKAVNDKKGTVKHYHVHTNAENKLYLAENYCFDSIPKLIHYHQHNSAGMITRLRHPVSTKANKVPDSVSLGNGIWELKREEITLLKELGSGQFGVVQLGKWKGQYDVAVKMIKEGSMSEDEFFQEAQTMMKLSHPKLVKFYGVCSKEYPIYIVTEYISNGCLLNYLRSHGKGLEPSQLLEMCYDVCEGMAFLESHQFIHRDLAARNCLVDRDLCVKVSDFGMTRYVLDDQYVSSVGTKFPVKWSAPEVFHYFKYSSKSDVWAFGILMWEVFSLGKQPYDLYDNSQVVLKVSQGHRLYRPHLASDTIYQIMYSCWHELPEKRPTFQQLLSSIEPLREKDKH
Method in brief: as §1

[7] = read-out: % Enzyme Activity (relative to DMSO controls) AVG
[8] = read-out: % Enzyme Activity (relative to DMSO controls) Data 1
[9] = read-out: % Enzyme Activity (relative to DMSO controls) Data 2

T5 sequence (Q6P2M8 whole entry): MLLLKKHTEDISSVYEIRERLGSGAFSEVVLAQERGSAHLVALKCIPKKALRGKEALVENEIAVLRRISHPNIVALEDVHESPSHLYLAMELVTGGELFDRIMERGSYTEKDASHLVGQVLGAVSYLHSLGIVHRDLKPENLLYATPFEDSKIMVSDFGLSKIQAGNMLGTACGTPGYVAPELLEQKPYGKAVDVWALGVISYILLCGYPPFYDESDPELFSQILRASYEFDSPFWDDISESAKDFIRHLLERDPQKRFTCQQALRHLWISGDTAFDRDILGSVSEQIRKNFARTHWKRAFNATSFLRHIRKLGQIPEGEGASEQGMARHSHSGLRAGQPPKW
T2 sequence (P49840 whole entry): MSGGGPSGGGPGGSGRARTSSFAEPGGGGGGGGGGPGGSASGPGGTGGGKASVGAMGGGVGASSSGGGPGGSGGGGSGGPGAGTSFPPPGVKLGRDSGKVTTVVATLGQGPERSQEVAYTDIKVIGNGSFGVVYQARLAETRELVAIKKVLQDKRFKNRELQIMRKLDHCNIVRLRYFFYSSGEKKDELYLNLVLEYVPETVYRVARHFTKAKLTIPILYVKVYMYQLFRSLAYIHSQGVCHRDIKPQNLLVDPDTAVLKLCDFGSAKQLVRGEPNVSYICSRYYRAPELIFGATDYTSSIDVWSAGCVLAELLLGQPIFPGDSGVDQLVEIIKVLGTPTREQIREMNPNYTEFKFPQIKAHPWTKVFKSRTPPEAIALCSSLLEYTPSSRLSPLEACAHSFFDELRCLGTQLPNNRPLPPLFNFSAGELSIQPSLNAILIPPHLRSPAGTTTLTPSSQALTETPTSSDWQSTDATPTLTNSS

SMILES: CC(C)(C)C(=O)N1N=CC[C@H]1c1ccccc1 [GSK′963]
- remaining activity at 10 µM [1, 7]: 107%
- remaining activity at 10 µM [1, 8]: 109%
- remaining activity at 10 µM [1, 9]: 106%
- remaining activity at 10 µM [2, 7]: 111%
- remaining activity at 10 µM [2, 8]: 107%
- remaining activity at 10 µM [2, 9]: 114%
- remaining activity at 10 µM [3, 7]: 105%
- remaining activity at 10 µM [3, 8]: 103%
- remaining activity at 10 µM [3, 9]: 107%
- remaining activity at 10 µM [4, 7]: 107%
- remaining activity at 10 µM [4, 8]: 108%
- remaining activity at 10 µM [4, 9]: 106%
- remaining activity at 10 µM [5, 7]: 96.4%
- remaining activity at 10 µM [5, 8]: 97.1%
- remaining activity at 10 µM [5, 9]: 95.8%
- remaining activity at 10 µM [6, 7]: 99.9%
- remaining activity at 10 µM [6, 8]: 94.5%
- remaining activity at 10 µM [6, 9]: 105%
